# Measurements reported in the supplement of paper PMC10307832.
# Compound: COc1nc(N)nc2c1ncn2[C@@H]1O[C@H](CO)[C@@H](O)[C@@H]1O [Nelarabine] + Nc1ncn([C@H]2C[C@H](O)[C@@H](CO)O2)c(=O)n1 [Decitabine] (partner 2 µM)
# Test: relative viability (nuclei count vs DMSO), 5 days (fraction); higher = more cells survive
# Conditions: first compound 0.01 µM
# Procedure, shortened: (§1)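 Medians of duplicate plates are given as relative viability. That measure is the nuclei count in treated wells divided by the count in vehicle wells. Counts were taken on 4× images of lung cancer cell lines in 1536-well plates, 5 days after pin-tool dosing the day after seeding with one drug alone or a fixed anchor-drug dose plus five library-drug doses (not always all listed) in √10 steps.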
row,Cell Line,relative viability
1,201T,0.869
2,A549,0.293
3,A-427,0.551
4,ABC-1,1.25
5,BEN,0.729
6,COR-L23,0.532
7,COR-L 105,0.691
8,ChaGo-K-1,0.559
9,EKVX,0.373
10,EPLC-272H,0.435
11,H3255,0.712
12,HARA,0.436
13,HCC-15,0.739
14,HCC-44,0.942
15,HCC-78,0.713
16,HCC-366,0.419
17,HCC-827,0.24

row,Cell Line,relative viability
1,HOP-62,0.214
2,LC-2-ad,0.904
3,LCLC-103H,0.924
4,LK-2,0.261
5,NCI-H520,0.566
6,NCI-H522,0.724
7,NCI-H661,0.625
8,NCI-H1650,0.392
9,NCI-H2009,0.412
10,NCI-H2023,0.239
11,NCI-H2342,0.758
12,SK-LU-1,0.815
13,SK-MES-1,0.359
14,SW 900,0.415
15,SW 1573,0.582
16,UMC-11,0.71

# Same assay, conditions: first compound 0.03162 µM
row,Cell Line,relative viability
1,201T,0.871
2,A549,0.282
3,A-427,0.576
4,ABC-1,1.21
5,BEN,0.762
6,COR-L23,0.381
7,COR-L 105,0.723
8,ChaGo-K-1,0.532
9,EKVX,0.266
10,EPLC-272H,0.316
11,H3255,0.563
12,HARA,0.577
13,HCC-15,0.58
14,HCC-44,0.924
15,HCC-78,0.639
16,HCC-366,0.346
17,HCC-827,0.315

row,Cell Line,relative viability
1,HOP-62,0.194
2,LC-2-ad,0.865
3,LCLC-103H,0.716
4,NCI-H520,0.44
5,NCI-H522,0.763
6,NCI-H661,0.614
7,NCI-H1648,0.533
8,NCI-H1650,0.447
9,NCI-H2009,0.331
10,NCI-H2023,0.207
11,NCI-H2342,0.759
12,SK-LU-1,0.574
13,SK-MES-1,0.347
14,SW 900,0.399
15,SW 1573,0.503
16,UMC-11,0.551

# Same assay, conditions: first compound 0.1 µM
row,Cell Line,relative viability
1,201T,0.837
2,A549,0.271
3,A-427,0.476
4,ABC-1,1.09
5,BEN,0.712
6,COR-L23,0.408
7,COR-L 105,0.644
8,ChaGo-K-1,0.52
9,EKVX,0.356
10,EPLC-272H,0.288
11,H3255,0.574
12,HARA,0.442
13,HCC-15,0.656
14,HCC-44,0.863
15,HCC-366,0.296
16,HCC-827,0.306
17,HOP-62,0.23

row,Cell Line,relative viability
1,LC-2-ad,0.757
2,LCLC-97TM1,0.274
3,LCLC-103H,0.809
4,LK-2,0.272
5,NCI-H520,0.512
6,NCI-H522,0.608
7,NCI-H661,0.599
8,NCI-H1650,0.484
9,NCI-H2009,0.398
10,NCI-H2023,0.241
11,NCI-H2342,0.703
12,SK-LU-1,0.638
13,SK-MES-1,0.375
14,SW 900,0.398
15,SW 1573,0.513
16,UMC-11,0.578

# Same assay, conditions: first compound 0.3162 µM
row,Cell Line,relative viability
1,201T,0.896
2,A549,0.287
3,A-427,0.528
4,ABC-1,1.05
5,BEN,0.79
6,COR-L23,0.482
7,COR-L 105,0.66
8,ChaGo-K-1,0.539
9,EKVX,0.292
10,EPLC-272H,0.326
11,H3255,0.64
12,HARA,0.668
13,HCC-15,0.63
14,HCC-44,1.01
15,HCC-78,0.843
16,HCC-366,0.31
17,HCC-827,0.355
18,HOP-62,0.182

row,Cell Line,relative viability
1,LC-2-ad,0.932
2,LCLC-97TM1,0.279
3,LCLC-103H,0.759
4,LK-2,0.341
5,NCI-H520,0.617
6,NCI-H522,0.684
7,NCI-H661,0.628
8,NCI-H1648,0.616
9,NCI-H1650,0.478
10,NCI-H2009,0.447
11,NCI-H2023,0.223
12,NCI-H2342,0.775
13,SK-LU-1,0.822
14,SK-MES-1,0.422
15,SW 900,0.39
16,SW 1573,0.58
17,UMC-11,0.589

# Same assay, conditions: first compound 1 µM
row,Cell Line,relative viability
1,201T,0.829
2,A549,0.23
3,A-427,0.535
4,ABC-1,0.972
5,BEN,0.744
6,COR-L23,0.446
7,COR-L 105,0.719
8,ChaGo-K-1,0.539
9,EKVX,0.571
10,EPLC-272H,0.377
11,H3255,0.632
12,HARA,0.539
13,HCC-15,0.731
14,HCC-44,0.928
15,HCC-78,0.737
16,HCC-366,0.34
17,HCC-827,0.289
18,HOP-62,0.229

row,Cell Line,relative viability
1,LC-2-ad,0.73
2,LCLC-97TM1,0.241
3,LCLC-103H,0.638
4,LK-2,0.319
5,NCI-H520,0.485
6,NCI-H522,0.558
7,NCI-H661,0.515
8,NCI-H1648,0.441
9,NCI-H1650,0.333
10,NCI-H2009,0.385
11,NCI-H2023,0.219
12,NCI-H2342,0.734
13,SK-LU-1,0.597
14,SK-MES-1,0.35
15,SW 900,0.41
16,SW 1573,0.483
17,UMC-11,0.61

# Compound: C=CCn1c(=O)c2cnc(Nc3ccc(N4CCN(C)CC4)cc3)nc2n1-c1cccc(C(C)(C)O)n1 [Adavosertib] + O=C(c1cc(Cc2n[nH]c(=O)c3ccccc23)ccc1F)N1CCN(C(=O)C2CC2)CC1 [Olaparib] (partner 8 µM)
# Test: as above
# Conditions: first compound 0.01 µM
# Procedure, shortened: as §1
row,Cell Line,relative viability
1,201T,0.887
2,A549,0.356
3,A-427,0.76
4,ABC-1,0.942
5,BEN,1.07
6,CAL-12T,0.722
7,COR-L23,0.339
8,COR-L 105,0.657
9,Calu-6,0.629
10,ChaGo-K-1,0.434
11,EBC-1,0.624
12,EKVX,0.756
13,EPLC-272H,0.955
14,H3255,0.604
15,HARA,0.464
16,HCC-15,0.73
17,HCC-44,1
18,HCC-78,0.966
19,HCC-366,0.356
20,HCC-827,0.627
21,HOP-62,0.429

row,Cell Line,relative viability
1,IA-LM,0.809
2,LC-2-ad,0.7
3,LCLC-97TM1,0.412
4,LCLC-103H,0.797
5,LK-2,0.742
6,NCI-H520,0.345
7,NCI-H522,0.724
8,NCI-H661,0.779
9,NCI-H1299,0.953
10,NCI-H1648,0.953
11,NCI-H1650,0.714
12,NCI-H1703,0.507
13,NCI-H2009,0.686
14,NCI-H2023,0.496
15,NCI-H2342,0.497
16,SK-LU-1,0.498
17,SK-MES-1,0.748
18,SW 900,0.722
19,SW 1573,0.507
20,UMC-11,0.411

# Same assay, conditions: first compound 0.03162 µM
row,Cell Line,relative viability
1,201T,0.882
2,A549,0.336
3,A-427,0.716
4,ABC-1,0.779
5,BEN,1.01
6,CAL-12T,0.723
7,COR-L23,0.34
8,COR-L 105,0.689
9,Calu-6,0.552
10,ChaGo-K-1,0.39
11,EBC-1,0.765
12,EKVX,0.841
13,EPLC-272H,0.674
14,H3255,0.522
15,HARA,0.535
16,HCC-15,0.727
17,HCC-44,0.943
18,HCC-78,0.807
19,HCC-366,0.376
20,HCC-827,0.707
21,HOP-62,0.3

row,Cell Line,relative viability
1,IA-LM,0.82
2,LC-2-ad,0.725
3,LCLC-97TM1,0.369
4,LCLC-103H,0.769
5,LK-2,0.891
6,NCI-H520,0.332
7,NCI-H522,0.644
8,NCI-H661,0.828
9,NCI-H1299,0.959
10,NCI-H1648,0.966
11,NCI-H1650,0.708
12,NCI-H1703,0.545
13,NCI-H2009,0.739
14,NCI-H2023,0.432
15,NCI-H2228,0.749
16,NCI-H2342,0.561
17,SK-LU-1,0.461
18,SK-MES-1,0.805
19,SW 900,0.851
20,SW 1573,0.564
21,UMC-11,0.429

# Same assay, conditions: first compound 0.1 µM
row,Cell Line,relative viability
1,201T,0.868
2,A549,0.446
3,A-427,0.815
4,ABC-1,1.02
5,BEN,1.12
6,CAL-12T,0.863
7,COR-L23,0.227
8,COR-L 105,0.76
9,Calu-6,0.523
10,ChaGo-K-1,0.405
11,EBC-1,0.83
12,EKVX,0.783
13,EPLC-272H,0.566
14,H3255,0.667
15,HARA,0.766
16,HCC-15,0.958
17,HCC-44,1.02
18,HCC-78,0.83
19,HCC-366,0.317
20,HCC-827,0.709
21,HOP-62,0.663

row,Cell Line,relative viability
1,IA-LM,0.872
2,LC-2-ad,0.803
3,LCLC-97TM1,0.439
4,LCLC-103H,0.761
5,LK-2,0.763
6,NCI-H520,0.308
7,NCI-H522,0.647
8,NCI-H661,0.721
9,NCI-H1299,1.04
10,NCI-H1648,1.39
11,NCI-H1650,0.76
12,NCI-H1703,0.387
13,NCI-H2009,0.802
14,NCI-H2023,0.338
15,NCI-H2228,0.519
16,NCI-H2342,0.492
17,SK-LU-1,0.389
18,SK-MES-1,0.379
19,SW 900,0.779
20,SW 1573,0.663
21,UMC-11,0.452

# Same assay, conditions: first compound 0.3162 µM
row,Cell Line,relative viability
1,201T,0.818
2,A549,0.438
3,A-427,0.701
4,ABC-1,0.664
5,BEN,1.05
6,CAL-12T,0.475
7,COR-L23,0.163
8,COR-L 105,0.65
9,Calu-6,0.216
10,ChaGo-K-1,0.32
11,EBC-1,0.647
12,EKVX,0.833
13,EPLC-272H,0.2
14,H3255,0.583
15,HARA,0.187
16,HCC-15,0.876
17,HCC-44,1.02
18,HCC-78,0.835
19,HCC-366,0.32
20,HCC-827,0.655
21,HOP-62,0.254
22,IA-LM,0.775
23,LC-2-ad,0.786
24,LCLC-97TM1,0.303
25,LCLC-103H,0.742
26,LK-2,0.767
27,NCI-H520,0.332
28,NCI-H522,0.734
29,NCI-H661,0.449
